Paper PMC11528125, “Characterization of O-methyltransferases in the biosynthesis of phenylphenalenone phytoalexins based on the telomere-to-telomere gapless genome of Musella lasiocarpa” (Horticulture Research, 2024)

How the values were obtained:
Assay in all cases: MTase-Glo methyltransferase assay (SAH luminescence), Michaelis-Menten fit
Format in all cases: biochemical, Musella lasiocarpa
Ml08G0855 = system: T1, Ml08G0855; settings: 2 mM SAM, 45°C, 30 min; Tris-HCl; read-out: apparent Km
T1 construct: MBP fusion from pMAL-c4x (EcoRI/SalI), E. coli BL21 (DE3), purified

Ml01G0494 = system: T2, Ml01G0494; settings: 2 mM SAM, 45°C, 30 min; Tris-HCl; read-out: apparent Km
T2 construct: MBP fusion from pMAL-c4x (EcoRI/SalI), E. coli BL21 (DE3), purified

[1] = substrate: O=C1C(O)=Cc2cccc3ccc(-c4ccc(O)cc4)c1c23; settings: 2 mM SAM, 45°C, 30 min, Tris-HCl
Text: (§1) MTase-Glo methyltransferase assay (SAH luminescence), Michaelis-Menten fit on Ml04G2958 | The apparent Kcat/Km values of Ml01G0494, Ml04G2958, and Ml08G0855 for MLT3 | the apparent Kcat/Km values of Ml01G0494, Ml04G2958, and Ml08G0855 for MLT4

[2] = substrate: O=C1C(O)=Cc2cccc3ccc(-c4ccccc4)c1c23; settings: 2 mM SAM, 45°C, 30 min, Tris-HCl
Text: as §1

Row | Km (Ml08G0855) | Km (Ml01G0494) | Molecule | Km [1] | kcat [1] | Km [2] | kcat [2]
1 | 111 ± 27.4 µM | 60.4 ± 16.6 µM | O=C1C(O)=Cc2cccc3ccc(-c4ccc(O)cc4)c1c23 [MLT3] |  |  |  | 
2 | 37.3 ± 10.7 µM | 8.51 ± 0.13 µM | O=C1C(O)=Cc2cccc3ccc(-c4ccccc4)c1c23 [MLT4] |  |  |  | 

Continued, molecule first:

Row | Molecule | Km (Ml08G0855) | Km (Ml01G0494) | Km [1] | kcat [1] | Km [2] | kcat [2]
3 | O=C1C(O)=Cc2c(-c3ccc(O)c(O)c3)ccc3cccc1c23 [MLT9] | 81.9 µM | 971 µM |  |  |  | 
4 | Ml04G2958 (Musella lasiocarpa) (protein, MBP fusion from pMAL-c4x (EcoRI/SalI), E. coli BL21 (DE3), purified) MAGPHVVDAVGEHSEPYKSASRAHHHHYRHHSSLPLRTMGSVRAAAAALQPSPEEDEEACLQAGQLVSSSVLPMTLKAAIELQLLEIIVGAGPGARLSPADVAAQLPTTNPQAAAMVDRILRLLAAYGIVGCSVEAGPDGRPCRKYGAAPVCKYLTRNEDGVSFAALSLMNQDKVLMESWYHLKDAVLEGGIPFNKAYGMTAFEYHGTDPRFNKVFNEGMRSHSIIITKKLLQVYRGFDDVKVLVDVGGGTGATLHMITSTHPHILGINYDLPHVISDAPPLPGVEHVSGDMFESVPGGDAILMKWILHDWSDEHCAKILKNCWKALPEKGKLIAVECVLPVVPEPSLRTQSVCHVDLIMLAHNPGGKERTEMEFEELAKQAGFSGFKPTYVYASTWALEFTK |  |  | 69.94 ± 14.71 µM | 0.0005 s⁻¹ | 5.30 ± 0.68 µM | 0.00033 s⁻¹
